Results taken from paper PMC12916490 (Molecular Psychiatry, 2025).
Where two headings read alike, the source gives them in different places.

How the values were obtained:
C57BL/6 J mice [1] = assay: Locomotor activity in mice (dose-response sessions); assay type: in vivo, mouse; conditions: 30-min session, mean ± SEM
Description: (§1) Behavioral studies were conducted as previously described with minor modifications. Male C57BL/6 J mice (The Jackson Laboratory #000664, 24 mice/drug) were purchased at 8 weeks old, group housed for acclimation (3–5 per cage for 1–2 weeks) under a 12:12 light:dark cycle (07:00 local time = lights on), with ad libitum access to food and water at the NIDA IRP facilities in Baltimore, MD, USA. All experiments were approved by the NIDA IRP Animal Care and Use Committee. After acclimation to the vivarium facilities, each mouse was briefly anesthetized with isoflurane and a temperature transponder (14 × 2 mm, model IPTT-300, Bio Medic Data Systems, Inc., Seaford, DE, USA) was implanted subcutaneously (s.c.) on the back, posterior to the shoulder blades. After the implant, mice were single housed and allowed one week recovery prior to the start of experiments. […] Drugs were randomly assigned and administered s.c. as the weight of the form used at an injection volume of 0.01 mL/g body weight.
(§2) During experimental testing, mice were tested once every 1–2 weeks to avoid potential tolerance to behavioral effects of the test drugs and were tested 2–3 times in total per drug. Each test session began with a brief 5 min acclimation period to the testing arenas, followed by recording baseline body temperature using a handheld wand that was sensitive to the signals emitted from the s.c. transponder. After this, mice were injected s.c. with appropriate doses of test drug and returned to the chambers for a 30-min test session. During the dose-response sessions, locomotor activity was continuously recorded using open field chambers with photobeam arrays (Coulbourn Instruments, Holliston, MA, USA) that were modified with cylindrical inserts and custom floor panels that also allowed video recordings of each mouse to later quantify HTR activity (GoPro Hero 7 camera; 960p resolution at 120 frames per second). Videos for each mouse were analyzed post session using commercially available software used to quantify HTR as previously described.
(§3) Data analysis was performed with Prism software (version 10.1.2, GraphPad Software, Boston, MA, USA). The IC50 values from the radioligand binding assays were determined by nonlinear regression, using three independent concentration-response curves fitted to a one-site model. The Cheng-Prusoff equation was used to calculate Kᵢ values for the competing ligands. EC50 values were determined by applying nonlinear regression to concentration-response curves. Bias factors (β) were calculated based on the relative intrinsic activity approach. More detailed information can be found in the Supplementary information. Mean values for total number of HTR, change in body temperature from pre to post session (Δ°C), and total distance traveled (cm) for each drug dose were compared (p < 0.05) via Welch’s ANOVA with Dunnett’s T3 post test, comparing all doses to respective vehicle controls (0 mg/kg). Welch’s ANOVA with Dunnett’s T3 post test was also used to compare drug concentrations, but the data were compared to DOM in this case. Dose–response relationships for HTR and locomotor activities were plotted using bell-shaped curve fits, while temperature change data were plotted using four-parameter non-linear regression curve fits. The ascending phase of the HTR curve for each drug was used to determine ED50 potency values from four parameter non-linear regression fits. For combined DOM and DOAM administration, the plasma, brain tissue, and brain dialysate drug concentrations were compared using paired t-tests (p < 0.05). Ratios were compared using Holm-Sidak’s post hoc test following a repeated-measures one-way ANOVA (F (1.709, 6.835) = 70.80; p < 0.0001).
(§4) Locomotor activity and body temperature were also assessed to monitor other pharmacological effects of the drugs that may impact the HTR. […]

C57BL/6 J mice [2] = assay: HTR after single fixed doses prior to brain and blood collection (20 min); assay type: in vivo, mouse; conditions: single s.c. dose: DOM 3, DOPR 1, DOBU 3, DOAM 10, 2,5-DMA 10 mg/kg
Description: In these experiments, HTR activity was monitored for 20 min, followed by cardiac puncture and decapitation. Whole blood (~ 300–500 µL per sample) was collected via cardiac puncture, placed in tubes containing 10 µL of heparin (1000 IU/mL), and immediately stored on ice until centrifugation. Blood samples were spun at 3300 rpm at 4 °C and plasma was decanted into vials on dry ice until storage at -80 °C. Whole brains were collected immediately after cardiac puncture. Brains were frozen on dry ice, weighed, then placed into 7-mL homogenizing tubes with ceramic beads, and stored at -80 °C.
as §3, with “For combined DOM and DOAM administration, the plasma, brain tissue, and brain dialysate drug concentrations were compared using paired t-tests (p < 0.05). Ratios were compared using Holm-Sidak’s post hoc test following a repeated-measures one-way ANOVA (F (1.709, 6.835) = 70.80; p < 0.0001).” left out

C57BL/6 J mice [3] = assay: Body temperature change in mice (dose-response sessions); assay type: in vivo, mouse; conditions: pre to post 30-min session, mean ± SEM
Description: as §1, §2, §3, §4

h5-HT2A = h5-HT2A (Homo sapiens, UniProt P28223); assay: biochemical; assay type: binding; parameters: expressed in transfected cells; host or cells: HEK 293 cells (membrane preparation); conditions: for Selectivity (binding ratios) 5-HT2A/5-HT1A / Selectivity (binding ratios) 5-HT2A/5-HT2B / Selectivity (binding ratios) 5-HT2A/5-HT2C: ratio of Ki values
C57BL/6 J mice [4] = assay: Head-twitch response (HTR) dose-response in mice, 30-min session; assay type: in vivo, mouse; conditions: for HTR (count/30 min): mean ± SEM; for ED50: Mus musculus, sc, 0.5 h, read-out: HTR in mice ED50 (95% CI), ascending phase of dose-response curve; for ED50 / HTR in mice Emax / HTR in mice Maximum rate: s.c., 30 min session
Description: as §1, §2, §3, §4

h5-HT2C [5] = target: T1, h5-HT2C (Homo sapiens, UniProt P28335); assay: biochemical; assay type: binding
T1 sequence (P28335 33-458): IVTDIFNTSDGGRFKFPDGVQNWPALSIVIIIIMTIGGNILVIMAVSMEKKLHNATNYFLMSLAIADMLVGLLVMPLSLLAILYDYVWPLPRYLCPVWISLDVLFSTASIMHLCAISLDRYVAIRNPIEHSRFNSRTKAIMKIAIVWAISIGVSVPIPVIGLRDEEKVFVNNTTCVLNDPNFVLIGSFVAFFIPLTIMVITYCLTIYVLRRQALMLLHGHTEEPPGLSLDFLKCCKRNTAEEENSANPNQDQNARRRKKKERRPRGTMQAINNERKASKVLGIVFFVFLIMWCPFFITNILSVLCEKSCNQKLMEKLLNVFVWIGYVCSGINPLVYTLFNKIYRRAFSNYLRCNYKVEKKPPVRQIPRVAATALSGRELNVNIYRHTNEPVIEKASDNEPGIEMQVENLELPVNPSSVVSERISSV

h5-HT2C [6] = target: T1, h5-HT2C; assay: cell-based; conditions: for Emax: read-out: IP1 formation Emax h5-HT2C (95% CI)

h5-HT2A, sequence (P28223 whole entry, looked up): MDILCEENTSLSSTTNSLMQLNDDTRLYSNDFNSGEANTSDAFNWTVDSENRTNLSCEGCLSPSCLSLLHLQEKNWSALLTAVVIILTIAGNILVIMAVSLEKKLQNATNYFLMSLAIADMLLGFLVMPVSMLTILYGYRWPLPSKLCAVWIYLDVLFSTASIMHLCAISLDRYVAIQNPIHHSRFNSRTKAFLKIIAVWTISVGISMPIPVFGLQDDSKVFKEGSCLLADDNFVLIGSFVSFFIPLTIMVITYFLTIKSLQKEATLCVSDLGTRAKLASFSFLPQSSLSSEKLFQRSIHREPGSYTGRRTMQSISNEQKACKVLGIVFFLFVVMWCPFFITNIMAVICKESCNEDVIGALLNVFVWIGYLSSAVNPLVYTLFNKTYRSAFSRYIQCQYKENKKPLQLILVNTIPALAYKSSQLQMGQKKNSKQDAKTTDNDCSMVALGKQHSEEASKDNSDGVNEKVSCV

SMILES	Locomotor activity (distance traveled) (C57BL/6 J mice [1]; 0.03 mg/kg s.c.)	Locomotor activity (distance traveled) (C57BL/6 J mice [1]; 0.1 mg/kg s.c.)	Locomotor activity (distance traveled) (C57BL/6 J mice [1]; 0.3 mg/kg s.c.)	Locomotor activity (distance traveled) (C57BL/6 J mice [1]; 1 mg/kg s.c.)	Locomotor activity (distance traveled) (C57BL/6 J mice [1]; 3 mg/kg s.c.)	Locomotor activity (distance traveled) (C57BL/6 J mice [1]; 10 mg/kg s.c.)	Locomotor activity (distance traveled) (C57BL/6 J mice [1]; 30 mg/kg s.c.)	HTR (C57BL/6 J mice [2]) [count/20 min]	ΔTemperature (C57BL/6 J mice [3]; 0.03 mg/kg s.c.) [°C]	ΔTemperature (C57BL/6 J mice [3]; 0.1 mg/kg s.c.) [°C]	ΔTemperature (C57BL/6 J mice [3]; 0.3 mg/kg s.c.) [°C]	ΔTemperature (C57BL/6 J mice [3]; 1 mg/kg s.c.) [°C]	ΔTemperature (C57BL/6 J mice [3]; 3 mg/kg s.c.) [°C]	ΔTemperature (C57BL/6 J mice [3]; 10 mg/kg s.c.) [°C]	ΔTemperature (C57BL/6 J mice [3]; 30 mg/kg s.c.) [°C]	Ki (h5-HT2A) [nM]	Selectivity (binding ratios) 5-HT2A/5-HT1A (h5-HT2A)	Selectivity (binding ratios) 5-HT2A/5-HT2B (h5-HT2A)	Selectivity (binding ratios) 5-HT2A/5-HT2C (h5-HT2A)	HTR (count/30 min) (C57BL/6 J mice [4]; 0.03 mg/kg s.c.) [count]	also measured
CCCCCc1cc(OC)c(CC(C)N)cc1OC (stereo not shown) [DOAM, 4-amyl-2,5-dimethoxyamphetamine]	2,867 ± 167 cm	2,677 ± 103 cm	2,307 ± 244 cm	2,421 ± 129 cm	2,884 ± 249 cm	3,433 ± 325 cm	1,724 ± 138 cm	30	0.0 ± 0.1	0.0 ± 0.1	-0.3 ± 0.2	-0.1 ± 0.2	-0.2 ± 0.1	-0.2 ± 0.2	-3.9 ± 0.4	3.5	2407	28	21	7.8 ± 1.6	HTR (count/30 min) (C57BL/6 J mice [4]; 0.1 mg/kg s.c.): 6.2 ± 1.6 count; HTR (count/30 min) (C57BL/6 J mice [4]; 0.3 mg/kg s.c.): 6.5 ± 1.2 count; HTR (count/30 min) (C57BL/6 J mice [4]; 1 mg/kg s.c.): 9.5 ± 1.2 count; HTR (count/30 min) (C57BL/6 J mice [4]; 3 mg/kg s.c.): 28.5 ± 2.6 count; HTR (count/30 min) (C57BL/6 J mice [4]; 10 mg/kg s.c.): 44.8 ± 3.6 count; HTR (count/30 min) (C57BL/6 J mice [4]; 30 mg/kg s.c.): 26.0 ± 3.7 count; ED50 (C57BL/6 J mice [4]): 2.76 mg/kg; HTR in mice Emax (C57BL/6 J mice [4]): 45 total HTR count; HTR in mice Maximum rate (C57BL/6 J mice [4]): 9 HTR count/5 min; Ki (h5-HT2C [5]): 75 nM; EC50 (h5-HT2C [6]): 0.9 nM; Emax (h5-HT2C [6]): 94%
CCCCc1cc(OC)c(CC(C)N)cc1OC (stereo not shown) [DOBU, 4-butyl-2,5-dimethoxyamphetamine]	2,386 ± 181 cm	2,342 ± 184 cm	2,535 ± 61 cm	3,030 ± 217 cm	3,348 ± 297 cm	1,167 ± 195 cm	793 ± 154 cm	37	-0.1 ± 0.1	-0.1 ± 0.2	0.1 ± 0.1	-0.4 ± 0.1	-0.3 ± 0.2	-1.7 ± 0.6	-5.5 ± 0.4	5.4	2506	30	11	6.0 ± 0.9	HTR (count/30 min) (C57BL/6 J mice [4]; 0.1 mg/kg s.c.): 9.0 ± 1.7 count; HTR (count/30 min) (C57BL/6 J mice [4]; 0.3 mg/kg s.c.): 12.7 ± 1.3 count; HTR (count/30 min) (C57BL/6 J mice [4]; 1 mg/kg s.c.): 40.2 ± 2.9 count; HTR (count/30 min) (C57BL/6 J mice [4]; 3 mg/kg s.c.): 78.7 ± 6.2 count; HTR (count/30 min) (C57BL/6 J mice [4]; 10 mg/kg s.c.): 69.3 ± 4.7 count; HTR (count/30 min) (C57BL/6 J mice [4]; 30 mg/kg s.c.): 17.5 ± 4.5 count; ED50 (C57BL/6 J mice [4]): 1.29 mg/kg; HTR in mice Emax (C57BL/6 J mice [4]): 79 total HTR count; HTR in mice Maximum rate (C57BL/6 J mice [4]): 16 HTR count/5 min; Ki (h5-HT2C [5]): 60 nM; EC50 (h5-HT2C [6]): 0.13 nM; Emax (h5-HT2C [6]; normalized to maximal effect of 5-HT): 95%
